Data taken from US20090137527A1, “Compositions and methods for modulating immune function” (Resolvyx Pharmaceuticals, Inc., priority 2007, published 2009).
Where two headings read alike, the source gives them in different places.

Tested on: CD3-stimulated mouse splenocytes
Test: Ex vivo anti-CD3 stimulated cytokine production of mouse spleen cells after in vivo dosing
Details: for inhibition at 0.03 mg/kg: Mus musculus, Splenocyte, iv, single i.v. 0.03 mg/kg, 30 min before harvest, vs vehicle
Method: BALB/c female mice (n=5), 6-8 weeks old, were given either i.v. injection of Compound X or vehicle once a day for 5 days or a single i.v. injection of Compound X or vehicle. Thirty minutes after the last injection, spleens were removed under sterile conditions, and a single cell suspension was made by pressing through a nylon strainer (BD Falcon Cat# 352340). Cells were spun at 1500 rpm for 10 minutes, and the liquid was aspirated. RBC was lysed by adding 3 mL of ACK solution (Lonza Cat# 10-458E) for 5 minutes. The tube was filled with RPMI media and spun. Cells were resuspended in RPMI/10% FCS. To plates pre-coated with anti-CD3 (per the procedure described below) were added 4×10^5 cells per well. Supernatants were harvested after 18 hours of culture. Cytokine levels were measured by Bioplex (Biorad), according to manufacturer's instructions.
For CD3 stimulation, anti-mouse CD3 mAb (BD Pharmingen clone 145-2C11) was used at 0.2 μg/mL in PBS to coat flat bottom 96-well plate at 4° C. overnight. Plates were rinsed twice with PBS before use.
To measure this effect, mice were given daily i.v. injections of 0.3 mg/kg of Compound X for five days. Spleen cells were then harvested and stimulated with anti-CD3 antibody in vitro overnight.
Mice were given a single i.v. injection of 0.03 mg/kg Compound X 30 minutes before spleen cells were harvested. T cells were isolated by magnetic beads, and the purity of T cells was >95% as measured by flow cytometry. Spleen cells or purified T cells were stimulated with 0.2 μg/mL anti-CD3 overnight, and cytokine levels were measured by Bioplex.
The ability of in vivo treatment with Compound X to inhibit anti-CD3 stimulated cytokine production was measured by treating mice (n=5) with a single i.v. injection of 0.03 mg/kg of Compound X thirty minutes before spleens were harvested. Spleen cells were stimulated with anti-CD3 mAb overnight, and cytokine levels were measured by Bioplex. The resulting percent inhibition of cytokine production by total spleen cells as compared with vehicle treated animals is shown in Table 2. These studies indicate that Compound X, when dosed to naïve animals, inhibited ex vivo CD3-stimulated cytokine production in splenocytes by approximately 35-60%.

## CC[C@@H](O)/C=C/C=C\C[C@@H](O)/C=C/C=C/C=C\[C@@H](O)CCCC(=O)O [Compound X]
anti-CD3 overnight, read-out: % Inhibition of IL-6 production by total spleen cells
  inhibition at 0.03 mg/kg: 55.2%
anti-CD3 overnight, read-out: % Inhibition of IL-13 production by total spleen cells
  inhibition at 0.03 mg/kg: 68.3%
anti-CD3 overnight, read-out: % Inhibition of INFγ production by total spleen cells
  inhibition at 0.03 mg/kg: 78.5%
anti-CD3 overnight, read-out: % Inhibition of Il-2 production by total spleen cells
  inhibition at 0.03 mg/kg: 62.6%
anti-CD3 overnight, read-out: % Inhibition of Il-4 production by total spleen cells
  inhibition at 0.03 mg/kg: 64.9%
anti-CD3 overnight, read-out: % Inhibition of MIP1α production by total spleen cells
  inhibition at 0.03 mg/kg: 42.7%
anti-CD3 overnight, read-out: % Inhibition of MIP1β production by total spleen cells
  inhibition at 0.03 mg/kg: 46.1%
anti-CD3 overnight, read-out: % Inhibition of RANTES production by total spleen cells
  inhibition at 0.03 mg/kg: 37.2%
anti-CD3 overnight, read-out: % Inhibition of TNFα production by total spleen cells
  inhibition at 0.03 mg/kg: 50.7%
Daily i.v. 0.3 mg/kg for five days, anti-CD3 overnight
  cytokine release of CD3-stimulated mouse splenocytes: inhibits
Dosed to naïve animals, summary of studies
  inhibition of ex vivo CD3-stimulated cytokine production in splenocytes: 35-60%
Single i.v. 0.03 mg/kg 30 minutes before harvest, 0.2 μg/mL anti-CD3 overnight
  CD3-induced cytokine release, spleen cells or purified T cells: reduction
